Where two headings read alike, the source gives them in different places.
What was measured:
[1] = target: human IDO (Homo sapiens, UniProt P14902); assay: Cell based IDO/kynurenine assay in IDO-293-T-Rex cells; conditions: kynurenine production
How it was run: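 293-T-REx cells stably carrying doxycycline-inducible human or murine IDO were incubated with inhibitors in induction medium for 16 h at 37° C. Medium was TCA-treated at 60° C and reacted with p-dimethylaminobenzaldehyde. Kynurenine was quantified by absorbance at 480 nm.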

[2] = test system: 293-T-Rex cells expressing murine IDO; assay: Toxicity / cell viability (LD50) in the murine IDO cell based assay
[3] = target: purified human IDO protein (Homo sapiens, UniProt P14902); assay: Enzymatic IDO assay (kynurenine production, absorbance 480 nm); conditions: enzymatic activity
[4] = target: T1, murine IDO (Mus musculus, UniProt P28776); assay: Cell based IDO/kynurenine assay in 293-T-Rex cells expressing murine IDO
T1 construct: expressed in transfected cells; host or cells: 293-T-REx cells (Invitrogen), doxycycline-inducible CMV-tet promoter
Procedure: Transfected cells were selected in DBZ medium (DMEM, 10% FBS, 1× Penicillin+Streptomycin, 2 mM L-glutamine, 5 μg/mL blasticidin and 25 μg/ml Zeocin) at 37° C. with a 5% CO2 in air atmosphere. Individual clones were isolated by limiting dilution cloning from these populations.
The cells incubated in Neutral medium serve as negative control of the assay. The cells incubated in Induction medium and without inhibitor serve as the positive control of the assay. The incubation is carried out for 16 h at 37° C. in a cell culture incubator. 200 μL of medium are transferred to U-bottom polypropylene 96-well plates containing 25 μL of 30% TCA, incubated 30 minutes at 60° C. and centrifuged at 3400 g for 5 minutes. 150 μL of the clear supernatant is transferred to a polystyrene 96-well plate containing 50 μL of 4% (w/v) of p-dimethylaminobenzaldehyde in acetic acid, incubated for 10 min. Kynurenine concentration is determined by measuring the absorbance at 480 nm.

[5] = test system: IDO-293-T-Rex cells
Procedure: To measure the toxicity of each compound after 16 h incubation with cells, cell viability is measured via a WST-1 assay (Roche) according to instructions from the manufacturer. Briefly, after the incubation with each compound, medium is aspirated and replaced with […] of WST-1 reagent, and incubated 30 min at 37° C. Absorbance at 540 nm is correlated with the number of viable cells. Determination of IC50 (Kynurenine assay) or LD50 (WST-1 assay) is performed via non-linear regression analysis using GraphPad Prism software.
Viability was measure by the WST assay as described in one of the examples.

[6] = Table 15, 293T cells expressing human IDO, read-out: hIDO EC50
[7] = Table 15, cell viability loss, murine IDO cell based assay
[8] = hIDO IC50, Table 15, recombinant human IDO
[9] = Table 15, cells expressing murine IDO, read-out: mIDO EC50
[10] = Table 15, 50% cell viability loss, WST assay, human IDO cell based assay
[11] = Table 16, 293T cells expressing human IDO, read-out: hIDO EC50
[12] = Table 16, cell viability loss, murine IDO cell based assay
[13] = hIDO IC50, Table 16, recombinant human IDO
[14] = Table 16, cells expressing murine IDO, read-out: mIDO EC50
[15] = Table 16, 50% cell viability loss, WST assay, human IDO cell based assay

T1 sequence (P28776 whole entry): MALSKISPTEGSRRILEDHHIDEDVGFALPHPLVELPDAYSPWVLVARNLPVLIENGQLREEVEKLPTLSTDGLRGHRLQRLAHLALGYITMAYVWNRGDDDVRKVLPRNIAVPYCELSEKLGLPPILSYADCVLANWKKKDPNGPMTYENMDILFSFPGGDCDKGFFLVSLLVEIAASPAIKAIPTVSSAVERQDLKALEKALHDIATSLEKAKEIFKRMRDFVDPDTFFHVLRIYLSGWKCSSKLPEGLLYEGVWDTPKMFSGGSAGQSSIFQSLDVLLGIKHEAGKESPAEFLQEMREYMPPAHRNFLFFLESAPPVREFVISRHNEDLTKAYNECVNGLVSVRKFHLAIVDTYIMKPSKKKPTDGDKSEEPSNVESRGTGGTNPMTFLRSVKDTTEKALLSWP
human IDO, sequence (P14902 whole entry): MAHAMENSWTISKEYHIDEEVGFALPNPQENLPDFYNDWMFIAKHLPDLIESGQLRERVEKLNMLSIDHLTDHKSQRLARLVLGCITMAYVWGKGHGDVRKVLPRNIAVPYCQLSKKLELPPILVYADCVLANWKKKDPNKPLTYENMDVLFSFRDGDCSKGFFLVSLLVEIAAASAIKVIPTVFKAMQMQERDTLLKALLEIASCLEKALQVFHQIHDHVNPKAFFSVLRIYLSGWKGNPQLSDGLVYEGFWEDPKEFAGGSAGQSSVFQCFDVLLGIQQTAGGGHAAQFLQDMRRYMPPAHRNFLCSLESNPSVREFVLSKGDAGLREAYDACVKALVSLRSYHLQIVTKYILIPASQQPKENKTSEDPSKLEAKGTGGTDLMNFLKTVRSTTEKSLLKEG
purified human IDO protein, sequence (P14902 whole entry P110S/E119G): as the sequence (P14902 whole entry) above, with P110S, E119G counted along it

SMILES | EC50 [1, 6] [µM] | IC50 [3, 8] [µM] | EC50 [4, 9] [µM] | EC50 [1, 11] [µM] | IC50 [3, 13] [µM] | EC50 [4, 14] [µM] | other results
NOCc1ccc2ccccc2c1 [compound 1736, O-(naphthalen-2-ylmethyl)hydroxylamine] | < 10 | < 10 | < 10 |  |  |  | mIDO LD50 [2, 7]: D (D>1000 μM); hIDO LD50 [5, 10]: D (D>1000 μM)
NOCc1c[nH]c2ccccc12 [compound 1742, O-((1H-indol-3-yl)methyl)hydroxylamine] | < 10 | 10 to 100 | < 10 |  |  |  | mIDO LD50 [2, 7]: D (D>1000 μM); hIDO LD50 [5, 10]: D (D>1000 μM)
NOCc1cccc(F)c1 [compound 762, O-(3-fluorobenzyl)hydroxylamine] |  |  |  | < 10 | < 10 | < 10 | mIDO LD50 [2, 12]: D (D>1000 μM); hIDO LD50 [5, 15]: D (D>1000 μM)
NOCc1ccccc1I [compound 1817, O-(2-iodobenzyl)hydroxylamine] |  |  |  | < 10 | < 10 | 10 to 100 | mIDO LD50 [2]: D (key: A: <10 μM; B: 10-100 μM; C: 100-1000 μM; D>1000 μM); hIDO LD50 [5]: D (key: A: <10 μM; B: 10-100 μM; C: 100-1000 μM; D>1000 μM)
NOCc1cc([N+](=O)[O-])cc([N+](=O)[O-])c1 [compound 1657, O-(3,5-dinitrobenzyl)hydroxylamine] |  |  |  |  | < 10 |  | EC50 ([1]; hIDO EC50, Table 16, 293T cells expressing human IDO): < 10 µM; mIDO LD50 [2, 12]: D (D>1000 μM); EC50 ([4]; mIDO EC50, Table 16, cells expressing murine IDO): < 10 µM; hIDO LD50 [5, 15]: D (D>1000 μM)
NOCc1cc(Cl)cc(Cl)c1 [compound 1769, O-(3,5-dichlorobenzyl)hydroxylamine] | < 10 | < 10 | < 10 |  |  |  | mIDO LD50 [2]: D (key: A: <10 μM; B: 10-100 μM; C: 100-1000 μM; D>1000 μM); hIDO LD50 [5]: D (key: A: <10 μM; B: 10-100 μM; C: 100-1000 μM; D>1000 μM)
NOCc1cccc(Cl)c1 [compound 1672, O-(3-chlorobenzyl)hydroxylamine] |  |  |  | < 10 | < 10 | < 10 | mIDO LD50 [2]: D (key: A: <10 μM; B: 10-100 μM; C: 100-1000 μM; D>1000 μM); hIDO LD50 [5]: D (key: A: <10 μM; B: 10-100 μM; C: 100-1000 μM; D>1000 μM)
NOCc1cc(F)cc(F)c1 [compound 1770, O-(3,5-difluorobenzyl)hydroxylamine] | < 10 | < 10 |  |  |  |  | mIDO LD50 [2]: D (key: A: <10 μM; B: 10-100 μM; C: 100-1000 μM; D>1000 μM); EC50 ([4]; Table 15, printed as a number instead of a range class, read-out: mIDO EC50): 2.3 µM; hIDO LD50 [5]: D (key: A: <10 μM; B: 10-100 μM; C: 100-1000 μM; D>1000 μM)
NOCc1cccnc1 [compound 1738, O-(pyridin-3-ylmethyl)hydroxylamine] | < 10 | 10 to 100 | 10 to 100 |  |  |  | mIDO LD50 [2, 7]: D (D>1000 μM); hIDO LD50 [5, 10]: D (D>1000 μM)
NOCc1ccc(I)cc1 [compound 1818, O-(4-iodobenzyl)hydroxylamine] |  |  |  | < 10 | < 10 | 10 to 100 | mIDO LD50 [2]: D (key: A: <10 μM; B: 10-100 μM; C: 100-1000 μM; D>1000 μM); hIDO LD50 [5]: D (key: A: <10 μM; B: 10-100 μM; C: 100-1000 μM; D>1000 μM)
NOCc1ccc2c(c1)OCCO2 [compound 1750, O-((2,3-dihydrobenzo[b][1,4]dioxin-6-yl)methyl)hydroxylamine] | < 10 | 10 to 100 | 10 to 100 |  |  |  | 
NOCCc1cccc([N+](=O)[O-])c1 [compound 1752, O-(3-nitrophenethyl)hydroxylamine] |  |  |  | < 10 | < 10 | < 10 | 
NOCc1cccc([N+](=O)[O-])c1 [compound 317, O-(3-nitrobenzyl)hydroxylamine] |  |  |  | < 10 | < 10 | < 10 | EC50 ([1]; 293T cell line stably expressing human IDO, values reported in ranges, read-out: hIDO EC50): < 20 µM; IC50 ([3]; hIDO IC50, recombinant human IDO, values reported in ranges): < 20 µM
NOCc1cc(Cl)ccc1-c1ccccc1Cl [compound 1915, O-((2′,4-dichlorobiphenyl-2-yl)methyl)hydroxylamine] | 10 to 100 | < 10 | 100 to 1000 |  |  |  | 
NOCc1ccccc1C(F)(F)F [compound 1677, O-(2-(trifluoromethyl)benzyl)hydroxylamine] |  |  |  | < 10 | < 10 | 10 to 100 | 
NOCc1cccc(CON)c1 [compound 1823, O,O′-(1,3-phenylenebis(methylene))bis(hydroxylamine)] |  |  |  | 10 to 100 | 10 to 100 | < 10 | 

SMILES | EC50 [1, 6] [µM] | IC50 [3, 8] [µM] | EC50 [4, 9] [µM] | EC50 [1, 11] [µM] | IC50 [3, 13] [µM] | EC50 [4, 14] [µM] | other results
NOC(CCc1ccccc1)c1ccccc1 (stereo not drawn) [compound 1924, O-(1,3-diphenylpropyl)hydroxylamine] | < 10 | < 10 | 10 to 100 |  |  |  | 
NOC(Cc1ccccc1)c1ccccc1 (stereo not drawn) [compound 1921, O-(1,2-diphenylethyl)hydroxylamine] | < 10 | < 10 | 10 to 100 |  |  |  | 
NOC(c1ccccc1)c1ccccc1 [compound 1922, O-benzhydrylhydroxylamine] |  |  |  | < 10 | < 10 | < 10 | 
N#Cc1ccc(CON)cc1 [compound 1896, 4-(aminooxymethyl)benzonitrile] | < 10 | < 10 | 10 to 100 |  |  |  | mIDO LD50 [2, 7]: D (D>1000 μM); hIDO LD50 [5, 10]: D (D>1000 μM)
NOCc1ccccc1-c1ccc(Cl)cc1 [compound 1879, O-((4′-chlorobiphenyl-2-yl)methyl)hydroxylamine] | < 10 | < 10 | 10 to 100 |  |  |  | 
NOCc1ccc2ncccc2c1 [compound 1741, O-(quinolin-6-ylmethyl)hydroxylamine] | < 10 | 10 to 100 | < 10 |  |  |  | 
NOCc1ccccc1NCc1ccccc1 [compound 1662, 2-(aminooxymethyl)-N-benzylaniline] | < 10 | < 10 | 100 to 1000 |  |  |  | 
NOCc1c(F)c(F)c(F)c(F)c1F [compound 1667, O-(perfluorobenzyl)hydroxylamine] |  |  |  | < 10 | 10 to 100 | 10 to 100 | 
C=CCC(ON)c1cccc([N+](=O)[O-])c1 (stereo not drawn) [compound 1755, O-(1-(3-nitrophenyl)but-3-enyl)hydroxylamine] |  |  |  | < 10 | < 10 | < 10 | 
NOCc1ccccc1-c1ccccc1 [compound 1827, O-(biphenyl-2-ylmethyl)hydroxylamine] | < 10 | < 10 | 10 to 100 |  |  |  | 
CNC(=O)CCC(ON)c1ccccc1 (stereo not drawn) [compound 1898, 4-(aminooxy)-N-methyl-4-phenylbutanamide] | < 10 | 10 to 100 | 10 to 100 |  |  |  | 
NOCc1ccccc1[N+](=O)[O-] [compound 811, O-(2-nitrobenzyl)hydroxylamine] |  |  |  | < 10 | < 10 | 10 to 100 | 
NOCc1cccc(C(F)(F)F)c1 [compound 1775, O-(3-(trifluoromethyl)benzyl)hydroxylamine] |  |  |  | < 10 | < 10 | < 10 | 
COC(=O)C(ON)c1ccccc1 (stereo not drawn) [compound 1886, methyl 2-(aminooxy)-2-phenylacetate] | < 10 | < 10 | < 10 |  |  |  | 
NOCc1cccc(N)c1 [compound 1824, 3-(aminooxymethyl)aniline] | < 10 | 10 to 100 | 10 to 100 |  |  |  | 
NOCc1ccccn1 [compound 1739, O-(pyridin-2-ylmethyl)hydroxylamine] | < 10 | 10 to 100 | < 10 |  |  |  | 

— US20130289083A1, “IDO Inhibitors” (priority 2007, published 2013)
